This passage reports IC50 results from ChEMBL document CHEMBL3861964, “Bioassay-Guided Isolation of Prenylated Xanthone Derivatives from the Leaves of Garcinia oligantha” (J Nat Prod, 2016).

A short description of series [1]: Cytotoxicity against human HepG2 cells assessed as reduction in cell viability after 72 hrs by MTT assay. Particulars: HepG2, 72 h. The series is classed as functional, cell-based.
The next series in a line: cells. The following applies: Homo sapiens, HT-29, 72 h.
Series [2] in a line: Cytotoxicity against human A549 cells assessed as reduction in cell viability after 72 hrs by MTT assay. The series is classed as functional, cell-based. The following applies: A549, 72 h.
Series [3] is described as follows: Cytotoxicity against human PC3 cells assessed as reduction in cell viability after 72 hrs by MTT assay. The series is classed as functional, cell-based. The following applies: PC-3, 72 h.
Series [4] can be described thus: Cytotoxicity against human HL-7702 cells assessed as reduction in cell viability after 72 hrs by MTT assay. The series is classed as toxicity, cell-based, L02.

Description for cells: Cytotoxicity against human HT-29 cells assessed as reduction in cell viability after 72 hrs by MTT assay

On to `CC(C)=CCC/C(C)=C/C[C@]1(C(=O)O)CC(=C(C)C)C(=O)c2oc3c(CC=C(C)C)c(O)cc(O)c3c(=O)c21`, for which the IC50 (in series [1]; in “cells”; in series [2]; in series [3]) was > 10 µM each time.
`CO[C@@]12C=C3C(=O)c4c(O)cc5c(c4O[C@@]34[C@@H]1C(C)(C)O[C@@]4(CC=C(C)C)C2=O)C=CC(C)(C)O5`: the IC50 in series [1] was 4.5 µM; in the series “cells”, 4.8 µM; in series [2], 3.9 µM; in series [3], 4.6 µM. Further, in series [4], the IC50 at 72 h stood at 8.6 µM.
The corresponding values for `CC(C)=CCC/C(C)=C/C[C@@]1(CC=C(C)C)C(=O)C(O)=C(O)c2oc3c4c(cc(O)c3c(=O)c21)OC(C)(C)C=C4` are > 10 µM, 6.4 µM, 5 µM, 5.9 µM and > 10 µM.
Regarding `CC(C)=CCC1(C(=O)O)CC(=C(C)C)C(=O)c2oc3c4c(cc(O)c3c(=O)c21)OC(C)(C)C=C4` (racemic), the IC50 (in series [1]; in the series “cells”; in series [2]; in series [3]) was > 10 µM in each case.
For the compound `CO[C@]12C=C3C(=O)c4c(O)cc(O)c(CC=C(C)C)c4O[C@]34C(C1)C(C)(C)O[C@]4(CC=C(C)C)C2=O`, the IC50 was found to be 2.8 µM in series [1], 2.2 µM in the series “cells”, 3 µM in series [2] and 2.1 µM in series [3]. Besides, in series [4], the IC50 at 72 h is 2.5 µM.
In the same order, the values of `CO[C@]12C=C3C(=O)c4c(O)c(CC=C(C)C)c(O)c(CC=C(C)C)c4O[C@]34C(C1)C(C)(C)O[C@]4(CC=C(C)C)C2=O` are 2.9 µM, 2.3 µM, 2.9 µM, 2.3 µM and 3.1 µM.
As to `CC(C)=CCc1c(O)cc(O)c2c(=O)c3c(oc12)C(CC=C(C)C)(CC=C(C)C)C(=O)C(O)=C3`, the IC50 (in series [1]; in “cells”; in series [2]; in series [3]) was > 10 µM in each case.
In the case of `CC(C)=CCC1=C(O)C(=O)C(CC=C(C)C)(CC=C(C)C)c2c1oc1cc(O)cc(O)c1c2=O`, the IC50 (in series [1]; in the series “cells”; in series [2]; in series [3]) was > 10 µM each time.
As for `CC(C)=CCc1c(O)c(O)c(O)c2oc3c4c(cc(O)c3c(=O)c12)OC(C)(C)C=C4`, the IC50 (in series [1]; in the series “cells”; in series [2]; in series [3]) was > 10 µM each time.
Turning to `C=C(C)[C@H]1C[C@](C/C=C(\C)CCC=C(C)C)(C(=O)O)c2c(oc3c(CC=C(C)C)c(O)cc(O)c3c2=O)[C@@H]1O`, the IC50 (in series [1]; in the series “cells”; in series [2]; in series [3]) was > 10 µM each time.
With `CC(C)=CCC1(CC=C(C)C)C(=O)C(O)=C(O)c2oc3c4c(cc(O)c3c(=O)c21)OC(C)(C)C=C4`, the IC50 in series [1] turned out to be 6.2 µM; in the series “cells”, 4.1 µM; in series [2], 5.5 µM; in series [3], 3.2 µM. In addition, the IC50 at 72 h in series [4] was 6.4 µM.
In the case of `CC(C)=CCc1cc(C(C)C)c(O)c2oc3c4c(cc(O)c3c(=O)c12)OC(C)(C)C=C4`, the concentration for half-maximal inhibition (IC50) (in series [1]; in “cells”; in series [2]; in series [3]) was > 10 µM in each case.
`CC(=O)O[C@H]1C(=O)[C@@]2(C)[C@H]([C@H](OC(=O)c3ccccc3)[C@]3(O)C[C@H](OC(=O)[C@H](O)[C@@H](NC(=O)c4ccccc4)c4ccccc4)C(C)=C1C3(C)C)[C@]1(OC(C)=O)CO[C@@H]1C[C@@H]2O` [PACLITAXEL]: the values for the IC50 in series [1], in series [2] and in series [3] were 0.2 µM, 0.08 µM and 0.03 µM, respectively. In addition, the concentration for half-maximal inhibition (IC50) at 72 h in series [4] was 0.06 µM.
